Experiments:
[1] = molecular target: T1, human ACC2 (Homo sapiens, UniProt O00763); assay: Human ACC enzymatic activity assay (ACC2); format: biochemical; settings: purified human ACC2; read-out: EA-CoA hACC 2 IC50
T1 construct: purchased BPS Bioscience
Method in brief: (§1)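 Purified human ACC1 (0.4 μg/mL) or ACC2 (0.48 μg/mL) was preincubated with compound 10 min at 37° C in HEPES pH 7.5 with 4.0 mM ATP and 15 mM ^13C-NaHCO3. The reaction was started with 5 μM acetyl-CoA, run 1-2 h at 37° C and stopped with TCA. Labelled malonyl-CoA was quantified by LC-MS/MS.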

[2] = system: Human sebocytes; assay: Cellular levels of malonyl-CoA in human sebocytes; format: cell-based; settings: 0.5 h, 30 min incubation, read-out: Malonyl-CoA in Sebo IC50
Method: Shimadzu LC system was used for sample analysis consisting of system controller (Shimadzu CBM-20A), autosampler (Shimadzu SIL-20A), pump A and B (Shimadzu LC-20AD), column oven (Shimadzu CTO-20A), and analytical column (Phenomenex Gemini 5u C18 11A, 100×2 mm). LC was running at 200 μL/min in the binary gradient mode with mobile phase A (5 mM Ammonium Acetate and 5 mM DMBA in water (1,3-Dimethylbutylamine)) and B (methanol). The samples were analyzed on an AB Sciex QTrap4000 LC-MS/MS triple quadrupole mass spectrometer (Applied Biosystems). Malonyl-CoA and malonyl-13C-CoA were monitored in positive ion mode following MRM transitions at 854.2/347.1 and 855.1/246.1, respectively. The product and internal standard were coeluted to the mass spectrometer in 3 s with 50% H2O, 25% MeCN, 25% acetone, and 5 mM ammonium acetate. Ion chromatograms were integrated using the Analyst 1.5.2 software. Peak area ratios were compared against a standard curve and final cellular concentration of malonyl-CoA or production rate of malonyl-13C-CoA was calculated as pmoles/mg protein per minute.
Human sebocytes (Celprogen) were grown in growth media (DMEM with 4.5 g/L glucose, 0.584 g/L L-glutamine (Sigma), 100 units/mL of penicillin and 100 μg/mL of streptomycin (Gibco), 10% fetal bovine serum (Gibco)) at 37° C. in a humidified water jacketed incubator (Forma Scientific) supplemented with 5% CO2 till 100% confluency. Cells grown in 152 cm^2 cell culture dish (Corning) were trypsinized with 0.25% trypsin-EDTA (Gibco), centrifuged at 800 rpm for 10 min (Eppendorf) and resuspended in 4 mL growth media. To 1 μL serial diluted compounds in DMSO, 99 μL cells (around 0.5 million cells suspended in growth media) were added and mixed well followed by incubation in cell culture incubator for 30 min. Cells were then centrifuged at 800 rpm for 10 min and 70 μL 10% trichloroacetic acid was added to each well to lyse the cells and precipitate proteins. Cellular levels of malonyl-CoA were quantitated by LC-MS/MS.

[3] = molecular target: T2, human ACC1 (Homo sapiens, UniProt Q13085); assay: Human ACC enzymatic activity assay (ACC1); format: biochemical; settings: purified human ACC1; read-out: EA-CoA hACC 1 IC50
T2 construct: purchased BPS Bioscience
Method in brief: as §1

T1 sequence (O00763 whole entry): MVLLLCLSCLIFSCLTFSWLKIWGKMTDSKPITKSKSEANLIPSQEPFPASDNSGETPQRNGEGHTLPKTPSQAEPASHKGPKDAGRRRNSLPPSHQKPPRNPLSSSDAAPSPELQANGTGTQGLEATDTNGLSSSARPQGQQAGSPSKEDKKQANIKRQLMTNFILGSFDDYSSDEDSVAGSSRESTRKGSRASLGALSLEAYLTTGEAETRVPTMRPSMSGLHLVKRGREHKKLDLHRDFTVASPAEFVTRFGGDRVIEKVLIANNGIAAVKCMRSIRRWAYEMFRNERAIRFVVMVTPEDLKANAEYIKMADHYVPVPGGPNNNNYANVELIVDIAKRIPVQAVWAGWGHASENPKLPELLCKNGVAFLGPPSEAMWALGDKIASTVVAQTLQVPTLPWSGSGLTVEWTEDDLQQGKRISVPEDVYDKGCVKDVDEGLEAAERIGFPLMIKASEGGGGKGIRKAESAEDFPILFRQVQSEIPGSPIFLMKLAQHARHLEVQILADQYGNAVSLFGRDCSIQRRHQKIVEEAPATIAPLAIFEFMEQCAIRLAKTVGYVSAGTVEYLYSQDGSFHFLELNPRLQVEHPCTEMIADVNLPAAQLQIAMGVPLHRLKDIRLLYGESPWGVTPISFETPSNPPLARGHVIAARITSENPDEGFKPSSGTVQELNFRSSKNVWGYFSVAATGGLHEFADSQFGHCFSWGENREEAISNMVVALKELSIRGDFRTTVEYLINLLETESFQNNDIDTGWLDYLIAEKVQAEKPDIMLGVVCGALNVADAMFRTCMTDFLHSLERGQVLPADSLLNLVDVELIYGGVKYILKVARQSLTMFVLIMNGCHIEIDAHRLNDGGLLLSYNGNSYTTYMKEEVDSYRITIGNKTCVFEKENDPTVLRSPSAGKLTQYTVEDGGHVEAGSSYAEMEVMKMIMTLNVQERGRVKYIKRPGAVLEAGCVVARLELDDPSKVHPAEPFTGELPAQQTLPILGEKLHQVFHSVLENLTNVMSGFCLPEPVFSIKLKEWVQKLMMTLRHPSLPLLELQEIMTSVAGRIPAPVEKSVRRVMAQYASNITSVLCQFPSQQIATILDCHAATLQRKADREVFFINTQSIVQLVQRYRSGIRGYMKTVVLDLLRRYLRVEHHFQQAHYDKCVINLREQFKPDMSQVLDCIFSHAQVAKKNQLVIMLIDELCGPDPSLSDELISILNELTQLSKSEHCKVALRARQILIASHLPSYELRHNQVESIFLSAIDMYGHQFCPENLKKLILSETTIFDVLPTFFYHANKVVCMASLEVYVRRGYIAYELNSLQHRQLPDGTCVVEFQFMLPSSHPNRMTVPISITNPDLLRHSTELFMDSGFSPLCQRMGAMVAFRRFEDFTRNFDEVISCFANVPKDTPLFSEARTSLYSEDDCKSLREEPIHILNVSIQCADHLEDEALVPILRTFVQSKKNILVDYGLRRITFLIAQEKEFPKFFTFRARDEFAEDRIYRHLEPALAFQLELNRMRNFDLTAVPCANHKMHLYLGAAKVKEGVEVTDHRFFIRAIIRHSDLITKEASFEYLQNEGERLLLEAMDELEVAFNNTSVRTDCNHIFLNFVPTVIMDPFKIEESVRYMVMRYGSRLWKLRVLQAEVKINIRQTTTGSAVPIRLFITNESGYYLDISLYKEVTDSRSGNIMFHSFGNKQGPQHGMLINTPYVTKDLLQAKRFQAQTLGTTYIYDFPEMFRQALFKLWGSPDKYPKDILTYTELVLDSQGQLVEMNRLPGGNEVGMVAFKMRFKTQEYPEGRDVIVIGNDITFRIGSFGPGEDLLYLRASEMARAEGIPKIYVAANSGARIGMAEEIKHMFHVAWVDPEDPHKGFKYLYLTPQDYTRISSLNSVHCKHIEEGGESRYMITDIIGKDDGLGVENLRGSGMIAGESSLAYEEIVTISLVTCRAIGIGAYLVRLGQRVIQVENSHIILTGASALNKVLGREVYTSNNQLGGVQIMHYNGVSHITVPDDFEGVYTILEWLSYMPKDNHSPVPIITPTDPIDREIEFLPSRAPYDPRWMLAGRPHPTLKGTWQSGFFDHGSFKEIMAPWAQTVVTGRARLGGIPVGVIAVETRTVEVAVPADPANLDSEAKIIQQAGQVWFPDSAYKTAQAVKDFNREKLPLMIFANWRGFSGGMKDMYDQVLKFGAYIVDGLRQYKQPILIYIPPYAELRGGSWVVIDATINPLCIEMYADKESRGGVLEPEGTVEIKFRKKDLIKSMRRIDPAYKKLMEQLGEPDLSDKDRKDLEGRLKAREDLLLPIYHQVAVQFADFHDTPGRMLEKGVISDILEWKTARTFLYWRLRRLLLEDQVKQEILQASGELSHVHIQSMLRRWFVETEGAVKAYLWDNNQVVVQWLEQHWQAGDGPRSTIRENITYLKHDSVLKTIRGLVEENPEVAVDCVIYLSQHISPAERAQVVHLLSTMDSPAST

For COc1cc(C(=O)N2CCC3(CC2)Cc2ccc(Nc4ccnn4C)cc2C(=O)O3)nc2c(OC)cccc12 [Example 6, 1′-(4,8-dimethoxyquinoline-2-carbonyl)-7-((1-methyl-1H-pyrazol-5-yl)amino)spiro[isochroman-3,4′-piperidin]-1-one], the IC50 [1] was 31.2 nM, the IC50 [2] was 47.4 nM and the IC50 [3] was 36.2 nM.
